According to ChEMBL document CHEMBL1146667, “Benzodiazepine-based selective inhibitors of mitochondrial F1F0 ATP hydrolase” (Bioorg Med Chem Lett, 2004):

biological target: T1, Cytochrome P450 2C9 (Homo sapiens, UniProt P11712); assay: Inhibitory activity against ccytochrome P450 2C9
T1 sequence (P11712 whole entry): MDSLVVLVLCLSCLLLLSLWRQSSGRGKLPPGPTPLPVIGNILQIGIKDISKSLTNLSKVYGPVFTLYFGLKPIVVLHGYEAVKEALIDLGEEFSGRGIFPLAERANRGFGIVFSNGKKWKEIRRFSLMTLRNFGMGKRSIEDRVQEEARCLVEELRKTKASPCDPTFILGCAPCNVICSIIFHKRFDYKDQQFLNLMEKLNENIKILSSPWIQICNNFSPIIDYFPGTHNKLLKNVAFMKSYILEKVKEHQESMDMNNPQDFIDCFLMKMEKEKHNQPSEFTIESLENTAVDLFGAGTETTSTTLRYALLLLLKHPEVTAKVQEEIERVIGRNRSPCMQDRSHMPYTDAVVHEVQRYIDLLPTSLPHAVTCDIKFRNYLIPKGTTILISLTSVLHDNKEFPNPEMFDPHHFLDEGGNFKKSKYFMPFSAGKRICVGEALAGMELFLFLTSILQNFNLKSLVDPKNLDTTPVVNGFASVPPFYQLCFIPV

Compound	IC50
CC(C)(C)c1ccc(S(=O)(=O)N2Cc3ccccc3N(Cc3c[nH]cn3)C(CCc3ccccc3)C2)cc1 (centres undefined)	38 nM

biological target: T1, Cytochrome P450 2C9; assay: Inhibitory activity against cytochrome P450 2C9; format: ADME

IC50	Compound
3000 nM	Cc1[nH]cnc1CN1c2ccccc2CN(S(=O)(=O)c2ccc(C(C)(C)C)cc2)CC1CCc1ccccc1 (centres undefined)
2000 nM	Cc1nc[nH]c1CN1c2ccccc2CN(S(=O)(=O)c2ccc(Cl)c(Cl)c2)CC1CCc1ccccc1 (centres undefined)

biological target: T2, Mitochondrial complex V; ATP synthase (Bos taurus, UniProt P00829+P05630+P05631+P05632); assay: Inhibitory activity against bovine mitochondrial F1F0-ATP synthase; format: protein-complex assay
T2 sequence (P05632 whole entry): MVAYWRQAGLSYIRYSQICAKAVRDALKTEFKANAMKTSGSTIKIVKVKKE
T2 sequence (P00829 whole entry): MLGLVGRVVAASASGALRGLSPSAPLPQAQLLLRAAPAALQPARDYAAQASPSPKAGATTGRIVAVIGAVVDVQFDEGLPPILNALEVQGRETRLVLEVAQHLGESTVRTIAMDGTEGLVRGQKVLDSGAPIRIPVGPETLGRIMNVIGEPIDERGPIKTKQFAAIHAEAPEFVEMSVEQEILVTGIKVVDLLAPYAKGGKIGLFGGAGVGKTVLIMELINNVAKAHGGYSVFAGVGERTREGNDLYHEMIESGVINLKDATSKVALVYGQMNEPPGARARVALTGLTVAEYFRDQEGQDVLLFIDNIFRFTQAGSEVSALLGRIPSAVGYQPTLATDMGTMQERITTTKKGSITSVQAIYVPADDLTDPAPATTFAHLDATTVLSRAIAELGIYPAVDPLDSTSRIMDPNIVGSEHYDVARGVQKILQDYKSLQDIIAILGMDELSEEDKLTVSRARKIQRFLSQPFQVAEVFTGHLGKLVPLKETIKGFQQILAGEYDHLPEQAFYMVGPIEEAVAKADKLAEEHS
T2 sequence (P05631 whole entry): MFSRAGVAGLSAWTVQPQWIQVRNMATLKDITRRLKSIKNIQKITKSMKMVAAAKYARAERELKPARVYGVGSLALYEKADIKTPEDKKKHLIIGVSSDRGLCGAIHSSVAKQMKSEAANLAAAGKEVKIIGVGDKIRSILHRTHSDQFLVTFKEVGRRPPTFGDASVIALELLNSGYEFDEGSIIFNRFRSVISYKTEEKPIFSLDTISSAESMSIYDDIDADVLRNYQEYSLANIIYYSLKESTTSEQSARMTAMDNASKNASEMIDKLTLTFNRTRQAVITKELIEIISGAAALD
T2 sequence (P05630 whole entry): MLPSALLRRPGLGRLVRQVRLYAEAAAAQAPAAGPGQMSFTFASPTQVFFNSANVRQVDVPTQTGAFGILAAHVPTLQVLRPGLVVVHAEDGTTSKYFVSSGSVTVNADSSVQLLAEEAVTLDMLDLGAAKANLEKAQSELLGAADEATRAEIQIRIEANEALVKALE

IC50	Compound
> 30000 nM	COc1ccc(S(=O)(=O)N2Cc3ccccc3N(Cc3c[nH]cn3)C(CCc3ccccc3)C2)cc1 (centres undefined)
> 30000 nM	N#Cc1ccc(S(=O)(=O)N2Cc3ccccc3N(Cc3cnc[nH]3)C(CCc3ccccc3)C2)cc1 (centres undefined)
> 30000 nM	Cc1[nH]cnc1CN1c2ccccc2CN(S(=O)(=O)c2ccc(C(C)(C)C)cc2)CC1CCc1ccccc1 (centres undefined)
> 30000 nM	CC(=O)Nc1ccc(S(=O)(=O)N2Cc3ccccc3N(Cc3cnc[nH]3)C(CCc3ccccc3)C2)cc1 (centres undefined)
> 30000 nM	O=S(=O)(c1cccs1)N1Cc2ccccc2N(Cc2cnc[nH]2)C(CCc2ccccc2)C1 (centres undefined)
> 30000 nM	O=S(=O)(Cc1ccccc1)N1Cc2ccccc2N(Cc2c[nH]cn2)C(CCc2ccccc2)C1 (centres undefined)
> 30000 nM	Cc1nc(CN2c3ccccc3CN(S(=O)(=O)c3ccc(F)cc3)CC2CCc2ccccc2)c[nH]1 (centres undefined)
> 30000 nM	CC(C)(C)c1ccc(CN2Cc3ccccc3N(Cc3cnc[nH]3)C(CCc3ccccc3)C2)cc1 (centres undefined)
> 30000 nM	O=S(=O)(c1cc(Cl)ccc1Cl)N1Cc2ccccc2N(Cc2cnc[nH]2)C(CCc2ccccc2)C1 (centres undefined)
> 30000 nM	Cc1nc[nH]c1CN1c2ccccc2CN(Cc2ccc(C(C)(C)C)cc2)CC1CCc1ccccc1 (centres undefined)
> 30000 nM	O=S(=O)(c1cccc2nonc12)N1Cc2ccccc2N(Cc2cnc[nH]2)C(CCc2ccccc2)C1 (centres undefined)
> 30000 nM	O=S(=O)(c1ccc(O)cc1)N1Cc2ccccc2N(Cc2cnc[nH]2)C(CCc2ccccc2)C1 (centres undefined)
> 30000 nM	O=S(=O)(N1Cc2ccccc2N(Cc2c[nH]cn2)C(CCc2ccccc2)C1)C(F)(F)F (centres undefined)
> 30000 nM	O=S(=O)(c1ccccc1)N1Cc2ccccc2N(Cc2cnc[nH]2)C(CCc2ccccc2)C1 (centres undefined)
> 30000 nM	O=S(=O)(c1cccc2cccnc12)N1Cc2ccccc2N(Cc2c[nH]cn2)C(CCc2ccccc2)C1 (centres undefined)
> 30000 nM	O=[N+]([O-])c1cccc(S(=O)(=O)N2Cc3ccccc3N(Cc3cnc[nH]3)C(CCc3ccccc3)C2)c1 (centres undefined)
> 30000 nM	Cc1nc[nH]c1CN1c2ccccc2CN(S(=O)(=O)c2ccc(F)cc2)CC1CCc1ccccc1 (centres undefined)
> 30000 nM	N#Cc1ccc(S(=O)(=O)N2Cc3ccccc3N(Cc3c[nH]cn3)C(CCc3ccccc3)C2)c(Cl)c1 (centres undefined)
> 30000 nM	O=S(=O)(c1ccc(F)cc1)N1Cc2ccccc2N(Cc2c[nH]cn2)C(CCc2ccccc2)C1 (centres undefined)
> 30000 nM	CC(C)(C)c1ccc(S(=O)(=O)N2Cc3ccccc3N(Cc3ncc[nH]3)C(CCc3ccccc3)C2)cc1 (centres undefined)
> 30000 nM	O=S(=O)(c1cccc2ccccc12)N1Cc2ccccc2N(Cc2cnc[nH]2)C(CCc2ccccc2)C1 (centres undefined)
> 30000 nM	Cc1nc[nH]c1CN1c2ccccc2CN(S(=O)(=O)c2ccc(Cl)c(Cl)c2)CC1CCc1ccccc1 (centres undefined)

Compound	IC50
CC(C)(C)c1ccc(S(=O)(=O)N2Cc3ccccc3N(Cc3c[nH]cn3)C(CCc3ccccc3)C2)cc1 (centres undefined)	> 30000 nM

biological target: T2, Mitochondrial complex V; ATP synthase; assay: Inhibitory activity against bovine mitochondrial F1F0-ATP hydrolase; format: protein-complex assay

IC50	Compound
77 nM	COc1ccc(S(=O)(=O)N2Cc3ccccc3N(Cc3c[nH]cn3)C(CCc3ccccc3)C2)cc1 (centres undefined)
255 nM	N#Cc1ccc(S(=O)(=O)N2Cc3ccccc3N(Cc3cnc[nH]3)C(CCc3ccccc3)C2)cc1 (centres undefined)
77 nM	Cc1[nH]cnc1CN1c2ccccc2CN(S(=O)(=O)c2ccc(C(C)(C)C)cc2)CC1CCc1ccccc1 (centres undefined)
2980 nM	CC(=O)Nc1ccc(S(=O)(=O)N2Cc3ccccc3N(Cc3cnc[nH]3)C(CCc3ccccc3)C2)cc1 (centres undefined)
636 nM	O=S(=O)(c1cccs1)N1Cc2ccccc2N(Cc2cnc[nH]2)C(CCc2ccccc2)C1 (centres undefined)
2410 nM	O=S(=O)(Cc1ccccc1)N1Cc2ccccc2N(Cc2c[nH]cn2)C(CCc2ccccc2)C1 (centres undefined)
9620 nM	Cc1nc(CN2c3ccccc3CN(S(=O)(=O)c3ccc(F)cc3)CC2CCc2ccccc2)c[nH]1 (centres undefined)
2140 nM	CC(C)(C)c1ccc(CN2Cc3ccccc3N(Cc3cnc[nH]3)C(CCc3ccccc3)C2)cc1 (centres undefined)
158 nM	O=S(=O)(c1cc(Cl)ccc1Cl)N1Cc2ccccc2N(Cc2cnc[nH]2)C(CCc2ccccc2)C1 (centres undefined)
2350 nM	Cc1nc[nH]c1CN1c2ccccc2CN(Cc2ccc(C(C)(C)C)cc2)CC1CCc1ccccc1 (centres undefined)
1780 nM	O=S(=O)(c1cccc2nonc12)N1Cc2ccccc2N(Cc2cnc[nH]2)C(CCc2ccccc2)C1 (centres undefined)
667 nM	O=S(=O)(c1ccc(O)cc1)N1Cc2ccccc2N(Cc2cnc[nH]2)C(CCc2ccccc2)C1 (centres undefined)
77 nM	O=S(=O)(N1Cc2ccccc2N(Cc2c[nH]cn2)C(CCc2ccccc2)C1)C(F)(F)F (centres undefined)
282 nM	O=S(=O)(c1ccccc1)N1Cc2ccccc2N(Cc2cnc[nH]2)C(CCc2ccccc2)C1 (centres undefined)
2930 nM	O=S(=O)(c1cccc2cccnc12)N1Cc2ccccc2N(Cc2c[nH]cn2)C(CCc2ccccc2)C1 (centres undefined)
423 nM	O=[N+]([O-])c1cccc(S(=O)(=O)N2Cc3ccccc3N(Cc3cnc[nH]3)C(CCc3ccccc3)C2)c1 (centres undefined)
151 nM	Cc1nc[nH]c1CN1c2ccccc2CN(S(=O)(=O)c2ccc(F)cc2)CC1CCc1ccccc1 (centres undefined)
939 nM	N#Cc1ccc(S(=O)(=O)N2Cc3ccccc3N(Cc3c[nH]cn3)C(CCc3ccccc3)C2)c(Cl)c1 (centres undefined)
221 nM	O=S(=O)(c1ccc(F)cc1)N1Cc2ccccc2N(Cc2c[nH]cn2)C(CCc2ccccc2)C1 (centres undefined)
> 10000 nM	CC(C)(C)c1ccc(S(=O)(=O)N2Cc3ccccc3N(Cc3ncc[nH]3)C(CCc3ccccc3)C2)cc1 (centres undefined)
338 nM	O=S(=O)(c1cccc2ccccc12)N1Cc2ccccc2N(Cc2cnc[nH]2)C(CCc2ccccc2)C1 (centres undefined)
22 nM	Cc1nc[nH]c1CN1c2ccccc2CN(S(=O)(=O)c2ccc(Cl)c(Cl)c2)CC1CCc1ccccc1 (centres undefined)

Compound	IC50
CC(C)(C)c1ccc(S(=O)(=O)N2Cc3ccccc3N(Cc3c[nH]cn3)C(CCc3ccccc3)C2)cc1 (centres undefined)	8 nM
